PubChem BioAssay (NCI)
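Assay format: 96-well plates, 48-hour exposure. GI50 marks 50% less growth. TGI is the concentration that stops growth completely.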 Activity calls are given as the source filed them. Cut-off read from the data, not from the text of the source: active = GI50 below about 0.43 µM; inactive = the rest.

Legend:
Test in all cases: NCI tumour cell line growth inhibition, 48 h
SNB-78 CNS = tested on: SNB-78 CNS
XF 498 CNS = tested on: XF 498 CNS
M19-MEL melanoma = tested on: M19-MEL melanoma
KM20L2 colon = tested on: KM20L2 colon
LXFL 529 NSCLC = tested on: LXFL 529 NSCLC
HOP-18 NSCLC = tested on: HOP-18 NSCLC
RXF-631 renal = tested on: RXF-631 renal
DMS 273 small cell lung = tested on: DMS 273 small cell lung
MDA-N = tested on: MDA-N
P388/ADR leukemia = tested on: P388/ADR leukemia
P388 leukemia = tested on: P388 leukemia

SMILES	TGI (SNB-78 CNS)	TGI (XF 498 CNS)	TGI (M19-MEL melanoma)	TGI (KM20L2 colon)	TGI (LXFL 529 NSCLC)	TGI (HOP-18 NSCLC)	TGI (RXF-631 renal)	TGI (DMS 273 small cell lung)	TGI (MDA-N)	other results
O=C(/C=C/c1ccc(O)cc1)c1cc(Cl)ccc1O	> 100 µM	85 µM	> 100 µM	> 100 µM	> 100 µM	> 100 µM	–	–	–	–
Cc1ccc2nc3c(C)cc(=O)cc-3sc2c1	> 100 µM	–	31 µM	> 100 µM	> 100 µM	> 100 µM	> 100 µM	> 100 µM	–	–
COC(=O)C1(O)c2ccccc2N=C2C1CCN2C (stereo not drawn)	> 100 µM	> 100 µM	–	> 100 µM	> 100 µM	> 100 µM	–	–	–	–
COc1cccc(/C=C\c2ccnc3ccccc23)c1	–	–	–	–	–	–	–	–	> 10 µM	–
CCCCCCCCCCCC(=O)OC(COC(N)=O)COc1ccc(Cl)cc1 (stereo not drawn)	84.8 µM	45.8 µM	32.9 µM	> 100 µM	45.2 µM	95.7 µM	67.7 µM	40.9 µM	–	–
O=C1CC[C@@H](NC(=O)Cc2ccccc2)C(=O)N1	–	> 100 µM	> 100 µM	> 100 µM	> 100 µM	> 100 µM	–	> 100 µM	–	–
COc1cc(/C=C/c2ccccn2)cc(OC)c1OC	–	–	–	–	–	–	–	–	> 10 µM	–
O=c1[nH]c(SCc2ccccc2[N+](=O)[O-])nc2nc[nH]c12	–	–	–	–	–	–	–	–	> 100 µM	–
NCC1(N2CCOCC2)C2CCCC21CNc1ccccc1 (stereo not drawn)	> 100 µM	> 100 µM	> 100 µM	–	> 100 µM	> 100 µM	> 100 µM	> 100 µM	–	–
Nc1ccc(C(=O)Nc2ccccc2N)cc1	> 100 µM	> 100 µM	> 100 µM	–	> 100 µM	> 100 µM	> 100 µM	> 100 µM	> 100 µM	–
CCCCC(C(=O)CCC(=O)Nc1ccc(Cl)cc1)C(=O)C(C)C (stereo not drawn)	> 100 µM	> 100 µM	> 100 µM	> 100 µM	> 100 µM	–	> 100 µM	> 100 µM	–	–
Cc1ccc(NC(=O)C(=O)CC(=O)c2ccccc2)cc1C	> 100 µM	> 100 µM	> 100 µM	> 100 µM	> 100 µM	> 100 µM	–	> 100 µM	–	–
Cn1cnc([N+](=O)[O-])c1Sc1nc2ccc([N+](=O)[O-])cc2[nH]1	81 µM	28.9 µM	44.5 µM	> 100 µM	26.9 µM	> 100 µM	–	4.68 µM	–	–
NC(=O)c1ncn(Cc2ccccc2)c1CNC(N)=S	> 100 µM	> 100 µM	> 100 µM	–	> 100 µM	> 100 µM	> 100 µM	> 100 µM	–	–
CCc1ccc([O-])c(C=NCCCN(C)CCCN=Cc2cc(C)ccc2[O-])c1.[Co+3].[N-]=[N+]=[N-]	> 150 mg/L	–	> 150 mg/L	–	–	–	–	> 150 mg/L	50 mg/L	GI50 (SNB-78 CNS): > 150 mg/L; outcome (XF 498 CNS): inactive; GI50 (P388/ADR leukemia): 82.9 mg/L; TGI (P388/ADR leukemia): > 150 mg/L; GI50 (M19-MEL melanoma): > 150 mg/L; outcome (KM20L2 colon): inactive; GI50 (MDA-N): 50 mg/L; GI50 (P388 leukemia): 145 mg/L; TGI (P388 leukemia): > 150 mg/L; GI50 (DMS 273 small cell lung): 34.7 mg/L; outcome (HOP-18 NSCLC): inactive
O=c1c2cc(O)c(O)cc2oc2cc(O)c(C3OC(CO)C(O)C(O)C3O)c(O)c12 (stereo not drawn)	–	–	–	–	–	–	–	–	> 100 µM	–
CC[C@@]1(O)C(=O)NCc2c1cc1n(c2=O)Cc2cc3c(NC(C)=O)cccc3nc2-1	–	–	–	–	–	–	–	–	> 100 µM	GI50 (MDA-N): > 100 µM
c1ccc2c(c1)N=C(c1ccc3ccccc3c1)CC(c1cccc3ccccc13)S2 (stereo not drawn)	–	> 100 µM	> 100 µM	> 100 µM	> 100 µM	> 100 µM	> 100 µM	> 100 µM	–	–
CC1(C)CC(N2CCN(C3CC(C)(C)NC(C)(C)C3)CC2)CC(C)(C)N1	> 100 µM	> 100 µM	–	> 100 µM	> 100 µM	> 100 µM	> 100 µM	> 100 µM	–	–

SMILES	TGI (SNB-78 CNS)	TGI (XF 498 CNS)	TGI (M19-MEL melanoma)	TGI (KM20L2 colon)	TGI (LXFL 529 NSCLC)	TGI (HOP-18 NSCLC)	TGI (RXF-631 renal)	TGI (DMS 273 small cell lung)	TGI (MDA-N)	other results
N#Cc1cn(-c2c3ccccc3nc3ccccc23)c(=O)[nH]c1=O	49.8 µM	25.2 µM	46.1 µM	32.2 µM	–	–	–	–	–	–
CC(C)COC(c1ccc2c(c1)OCO2)C(C)Br (stereo not drawn)	–	–	–	–	–	–	–	–	53.8 µM	–
c1cc2c(c(NC3=NCCN3)c1)CCCC2	–	–	–	–	–	–	–	–	> 100 µM	–
O=C(NC1C(=O)NNC1c1ccccc1Cl)c1ccccc1 (stereo not drawn)	–	> 100 µM	> 100 µM	> 100 µM	> 100 µM	> 100 µM	–	> 100 µM	–	–
N#CC1C(=O)NC(=O)C1=O (stereo not drawn)	> 100 µM	> 100 µM	> 100 µM	> 100 µM	> 100 µM	> 100 µM	> 100 µM	> 100 µM	–	–
NC(=O)c1cc([N+](=O)[O-])cc([N+](=O)[O-])c1	–	–	46.8 µM	> 100 µM	> 100 µM	–	> 100 µM	> 100 µM	–	–
COC(=O)/C(=N/NC(C)(C)C)C(C(=O)OC)C(=O)C(=O)Nc1nc2ccc([N+](=O)[O-])cc2s1 (stereo not drawn)	> 100 µM	> 100 µM	> 100 µM	> 100 µM	> 100 µM	–	–	–	–	–
COC(=O)C1(C)CCCC2(C)c3cc(OC)ccc3C(=O)C(Br)C12 (stereo not drawn)	–	–	–	–	–	–	–	–	> 10 µM	–
O=C1c2ccccc2C(=O)c2c1ccc1c2N=C(c2ccc(Br)cc2)CC(c2cccc3ccccc23)N1 (stereo not drawn)	> 100 µM	> 100 µM	–	> 100 µM	> 100 µM	> 100 µM	> 100 µM	> 100 µM	–	–
CC12CC(=O)C3C(CCC4=CC(=O)CCC43C)C1CC=C2CC(=O)O (stereo not drawn)	–	–	–	–	–	–	–	–	> 100 µM	–
COc1ccc(/C=C2\CCC(Cc3ccccc3)(CN(C)C)C2=O)cc1 (stereo not drawn)	> 100 µM	–	70.7 µM	59.6 µM	> 100 µM	> 100 µM	–	32.5 µM	> 100 µM	–
CC1CC(c2ccc(Cl)c(Cl)c2)=Nc2ccccc2S1 (stereo not drawn)	> 100 µM	> 100 µM	> 100 µM	> 100 µM	> 100 µM	> 100 µM	–	> 100 µM	–	–
CC1(C)OC(=O)C(=Cc2ccc([N+](=O)[O-])s2)C(=O)O1	–	–	–	–	–	–	–	–	32.5 µM	–
CCCCCCSc1nc(COC(=O)NC)c(COC(=O)NC)n1C	–	–	–	–	–	–	–	–	> 100 µM	–
COC(=O)C1=C(\O)C[C@@]2(C)CC[C@@H](C(=O)OC)C2C/C=C\1C(=O)OC (stereo partly drawn)	> 100 µM	–	> 100 µM	> 100 µM	> 100 µM	> 100 µM	> 100 µM	> 100 µM	–	–
Nc1nc2ncn(CC(O)COC(=O)c3ccccc3)c2c(=O)[nH]1 (stereo not drawn)	> 100 µM	> 100 µM	> 100 µM	> 100 µM	> 100 µM	> 100 µM	> 100 µM	> 100 µM	–	–
Cc1c(O)c(Br)c(C)c(O)c1Br (tested in a mixture with another compound)	–	–	–	–	–	–	–	–	3.26 µM	–
CN1CCc2cc3c4cc2C1Cc1ccc(cc1)Oc1cc(ccc1O)CC1c2c(cc(O)c(c2O4)O3)CCN1C (stereo not drawn)	21.3 µM	–	3.35 µM	10.3 µM	6.26 µM	18.5 µM	7.92 µM	3.84 µM	–	–
